Data: patent US9914910B2, “Methods of preserving and protecting pancreatic beta cells and treating or preventing diabetes by inhibiting NOX-1” (Eastern Virginia Medical School, priority 2013, dated 2018)

Experiments:
beta cells [1] = test: Static glucose-stimulated-insulin-secretion after PIC; type: cell-based; details: 100 nM, 3 mM vs 16 mM glucose
Method: Pyrazolopyridine dione compound class of dual selective NOX1/4 inhibitors were also evaluated on preservation of beta cell function and survival with concomitant exposure to inflammatory cytokines. Two NOX1/4 pyrazolopyridine dione compounds C1 and C2 (Methyl-2-phenyl-5-(2-pyridinylmethyl)-1H-pyrazolo[4,3-c]pyridine-3,6(2H,5H)-dione and 5-Benzyl-4-methyl-2-phenyl-1H-pyrazolo[4,3-c]pyridine-3,6(2H,5H)-dione, respectively) were assessed at 100 nM. […] Inflammatory cytokines (PIC; IFNγ, TNFα, IL-1β)) abolished this response. The glucose-stimulated-insulin-secretion response was preserved in the presence of inflammatory cytokines by pyrazolopyridine dione compounds C1 and C2. *p<0.05, **p<0.01.

beta cells [2] = test: Pro-caspase 3 cleavage after PIC, beta cell survival; type: cell-based; details: C1 100 nM, ML171 10 μM
Method: (§1) Loss of beta cell viability in response to inflammatory cytokines was assessed by measurement of caspase 3 activation and quantified microscopy. […] Measured by pro-caspase 3 cleavage (A) or quantified microscopy of YO-PRO-1 stained cells (B). […] Shown are RFU from fluorescent capase3 substrate, ##p<0.01 relative to control; *p<0.05; **p<0.01 relative to PIC (A) and Microscopic apoptotic index ###p<0.001 relative to control; ***p<0.001; **p<0.01 relative to PIC (B).

beta cells [3] = test: Quantified microscopy of YO-PRO-1 stained cells after PIC; type: cell-based; details: C1 100 nM, ML171 10 μM
Method: as §1

[4] = test system: NOX-1 gene expression in beta cells; test: Inflammatory cytokine-induced gene expression in beta cells; type: cell-based
From the text: Inflammatory cytokines (PIC; IFNγ, TNFα, IL-1β)) induce expression of NOX-1 and MCP-1 in beta cells. Elevated NOX-1 is associated with beta cell dysfunction and NOX-1 expression is associated with feed-forward generation of reactive oxygen species. […] Shown are fold increase, *p<0.05.
Feed-forward activation of NOX-1 can also be reduced with siRNA. Inflammatory cytokines (PIC; IFNγ, TNFα, IL-1β) induce the gene expression of NOX-1 that is further regulated in a feed-forward manner involving reactive oxygen species generated by NOX-1.
Compounds that inhibit interleukin-12, interleukin-23 and/or STAT4 signaling disrupt NOX-1 upregulation by inflammatory cytokines.

[5] = mice, dosing 1000 mg/Kg per os; cited from earlier work
NOX-1 = molecular target: T1, NOX-1 (Homo sapiens, UniProt Q9Y5S8); details: cited from earlier work
T1 sequence (Q9Y5S8 1-564): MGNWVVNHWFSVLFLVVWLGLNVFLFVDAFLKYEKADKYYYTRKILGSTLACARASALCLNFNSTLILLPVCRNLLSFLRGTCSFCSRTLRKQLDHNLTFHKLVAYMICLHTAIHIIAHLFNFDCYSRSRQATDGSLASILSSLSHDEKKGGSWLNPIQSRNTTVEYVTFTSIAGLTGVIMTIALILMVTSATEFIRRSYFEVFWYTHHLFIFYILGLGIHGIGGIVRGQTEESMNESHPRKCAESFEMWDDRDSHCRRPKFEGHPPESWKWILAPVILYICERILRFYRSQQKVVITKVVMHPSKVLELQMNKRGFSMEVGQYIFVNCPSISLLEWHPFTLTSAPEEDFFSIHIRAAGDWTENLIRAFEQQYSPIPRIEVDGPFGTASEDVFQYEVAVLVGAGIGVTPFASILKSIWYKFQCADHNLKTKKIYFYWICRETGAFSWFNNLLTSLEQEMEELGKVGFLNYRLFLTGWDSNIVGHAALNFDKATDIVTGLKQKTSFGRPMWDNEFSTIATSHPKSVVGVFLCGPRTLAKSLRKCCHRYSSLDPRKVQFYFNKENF
T1 sequence (P13498 1-195 partner): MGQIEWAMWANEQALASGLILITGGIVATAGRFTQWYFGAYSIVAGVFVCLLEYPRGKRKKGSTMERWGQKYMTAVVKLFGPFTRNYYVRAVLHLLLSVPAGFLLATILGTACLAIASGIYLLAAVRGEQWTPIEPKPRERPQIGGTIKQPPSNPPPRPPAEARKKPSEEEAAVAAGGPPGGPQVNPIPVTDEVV

[6] = test system: MCP-1, IL-12p40, IL-12 p35, IFNγ gene expression in primary mouse islets; test: Cytokine-induced target gene expression (real time PCR); type: cell-based; details: NCTT-1 100 nM, ML171 1 μM
Method: (§2) Total RNA was isolated using the RNeasy Mini Kit (Qiagen, Valencia, Calif.) and cDNA prepared using MMLV reverse transcriptase (Life Technologies) and random hexamers (Life Technologies). Jump Start Taq polymerase (Life Technologies) was used in PCR reactions. […] RT-PCR reactions were performed in triplicate (CFX96 Bio-Rad, Hercules, Calif.). Taqman primers (Life Technologies) were also used. Data was normalized to the housekeeping gene GAPDH and analyzed using the 2-ΔΔCT method.
Data is quantitative real time PCR gene expression analysis from triplicate experiments performed in replicate. Fold induction in gene expression over control (non cytokine-treated) islets is graphed.

[7] = test system: NOX-1 gene expression in primary mouse islets; test: PIC-induced NOX-1 gene expression (RT-PCR); type: cell-based; details: NCTT-1 100 nM, ML171 1 μM
From the text: Human donor islets were obtained from integrated islet distribution project (http://iidp.coh.org) and cultured in CMRL media (Mediatech, Manassas, Va.). Mouse islets were freshly isolated from 8-week old male C57BL/6J mice (Jackson Laboratory, Bar Harbor, Me.) by common bile duct cannulation and collagenase digestion. Islets were hand picked prior to use. […] Total RNA was isolated using the RNeasy Mini Kit (Qiagen, Valencia, Calif.) and cDNA prepared using MMLV reverse transcriptase (Life Technologies) and random hexamers (Life Technologies). Jump Start Taq polymerase (Life Technologies) was used in PCR reactions. Primers used with SYBR Green 1 (Molecular Probes, Carlsbad, Calif.) probes: […] GAPDH forward [NT] ID NO: 3); GAPDH reverse [NT] NO: 4). RT-PCR reactions were performed in triplicate (CFX96 Bio-Rad, Hercules, Calif.). Taqman primers (Life Technologies) were also used.

[8] = test system: MCP-1 expression in INS-1; test: Cytokine-induced MCP-1 gene expression (real time PCR); type: cell-based, rat; details: INS-1, 10 nM
Method: as §2
Data is quantitative real time PCR gene expression analysis from triplicate experiments performed in replicate.

[9] = test system: interleukin-12 and interleukin-23 production; details: cited from earlier work

Molecule: Methyl-2-phenyl-5-(2-pyridinylmethyl)-1H-pyrazolo[4,3-c]pyridine-3,6(2H,5H)-dione [C1]
- glucose-stimulated-insulin-secretion response with PIC (beta cells [1]): preserved
- inflammatory cytokine-induced cell death, pro-caspase 3 cleavage (beta cells [2]): significantly protected
- inflammatory cytokine-induced cell death, YO-PRO-1 microscopic apoptotic index (beta cells [3]): significantly protected
- inflammatory cytokine-induced gene expression (NOX-1 and MCP-1) [4]: dose-related inhibition

Molecule: Cc1c2c(=O)n(-c3ccccc3Cl)[nH]c2cc(=O)n1Cc1ccccn1 [GKT-136901]
- tolerability [5]: well tolerated

Molecule: c1ccc2c(c1)[I+]c1ccccc1-2 [diphenylene iodonium]
- selectivity among NOX isotypes (in words) (NOX-1): non-selective

Molecule: Cc1c2c(=O)n(-c3ccccc3)[nH]c2cc(=O)n1Cc1ccccc1 [C2, 5-Benzyl-4-methyl-2-phenyl-1H-pyrazolo[4,3-c]pyridine-3,6(2H,5H)-dione]
- glucose-stimulated-insulin-secretion response with PIC (beta cells [1]): preserved
- inflammatory cytokine-induced gene expression (NOX-1 and MCP-1) [4]: dose-related inhibition

Molecule: Cc1c2c(=O)n(-c3ccccc3)[nH]c2cc(=O)n1Cc1ccccn1 [NCTT-1]
- induction of gene IFNγ by PIC [6]: attenuated
- induction of gene IL-12 p35 by PIC [6]: attenuated
- induction of gene IL-12p40 by PIC [6]: attenuated
- induction of gene MCP-1 by PIC [6]: attenuated
- induction of gene NOX-1 by PIC [7]: attenuated
- cytokine-induced MCP-1 expression [8]: attenuated cytokine-induced MCP-1 expression

Molecule: COc1cc(C(C)=O)ccc1O [apocynin]
- selectivity among NOX isotypes (in words) (NOX-1): non-selective

Molecule: Cc1cccc(/C=N/Nc2cc(N3CCOCC3)nc(OCCc3ccccn3)n2)c1 [STA 5326, 6-morpholino-N-((E)-m-tolylmethyleneamino)-2-(2-(2-pyridyl)ethoxy)pyrimidin-4-amine]
- interleukin-12 and interleukin-23 production [9]: inhibits interleukin-12 and interleukin-23 production
- induction of NOX-1 gene expression by inflammatory cytokines ([4]; 1 μM): inhibited
